# Measured values published in US20060029544A1, “Receptor-binding cyclic peptides and methods of use” (The Regents of the University of California Office of …, priority 2004, published 2006).
# Tests used:
# αvβ5 integrin = target: T1, αvβ5 integrin (Homo sapiens, UniProt P06756+P18084); experiment: ELISA: biotinylated vitronectin binding to captured soluble αvβ5-mFc in the presence of RGD peptides; conditions: 20 μM peptide; 100% = signal without peptide
# T1 construct: chimeras comprising the extracellular domain of αvβ3, αvβ5, α5β1, and αIIbβ3 linked to the Fc domain of either mouse IgG; purchased Celltech plc (supplied, no catalogue number); host or cells: unpurified hybridoma / tissue culture supernatant from secreting cells
# T1 sequence (P06756 31-992 limits assumed): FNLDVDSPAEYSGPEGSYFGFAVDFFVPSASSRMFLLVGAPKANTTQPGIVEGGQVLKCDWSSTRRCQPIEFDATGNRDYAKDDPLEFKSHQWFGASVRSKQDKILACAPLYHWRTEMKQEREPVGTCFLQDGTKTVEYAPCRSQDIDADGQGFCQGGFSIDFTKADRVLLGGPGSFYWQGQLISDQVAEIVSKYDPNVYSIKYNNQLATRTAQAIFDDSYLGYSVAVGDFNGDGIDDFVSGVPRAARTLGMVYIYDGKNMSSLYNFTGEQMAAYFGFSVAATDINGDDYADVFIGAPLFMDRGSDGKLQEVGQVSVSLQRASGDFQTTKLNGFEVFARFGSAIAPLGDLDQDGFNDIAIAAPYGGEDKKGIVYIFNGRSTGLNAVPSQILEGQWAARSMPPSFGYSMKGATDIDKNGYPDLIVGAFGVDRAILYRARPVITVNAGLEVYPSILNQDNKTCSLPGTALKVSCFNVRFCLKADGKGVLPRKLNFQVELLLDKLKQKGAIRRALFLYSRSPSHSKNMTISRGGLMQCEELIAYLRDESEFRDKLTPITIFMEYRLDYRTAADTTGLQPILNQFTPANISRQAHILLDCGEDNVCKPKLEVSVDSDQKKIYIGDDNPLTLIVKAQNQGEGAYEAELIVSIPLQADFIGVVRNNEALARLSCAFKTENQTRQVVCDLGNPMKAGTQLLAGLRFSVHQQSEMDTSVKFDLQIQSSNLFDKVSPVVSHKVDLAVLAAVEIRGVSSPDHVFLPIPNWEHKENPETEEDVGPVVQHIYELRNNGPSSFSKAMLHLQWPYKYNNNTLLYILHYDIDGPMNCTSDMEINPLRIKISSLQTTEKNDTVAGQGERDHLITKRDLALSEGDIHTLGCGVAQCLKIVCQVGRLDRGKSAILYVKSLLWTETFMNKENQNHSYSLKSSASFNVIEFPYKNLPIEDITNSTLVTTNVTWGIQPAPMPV
# T1 sequence (P18084 24-719 limits assumed): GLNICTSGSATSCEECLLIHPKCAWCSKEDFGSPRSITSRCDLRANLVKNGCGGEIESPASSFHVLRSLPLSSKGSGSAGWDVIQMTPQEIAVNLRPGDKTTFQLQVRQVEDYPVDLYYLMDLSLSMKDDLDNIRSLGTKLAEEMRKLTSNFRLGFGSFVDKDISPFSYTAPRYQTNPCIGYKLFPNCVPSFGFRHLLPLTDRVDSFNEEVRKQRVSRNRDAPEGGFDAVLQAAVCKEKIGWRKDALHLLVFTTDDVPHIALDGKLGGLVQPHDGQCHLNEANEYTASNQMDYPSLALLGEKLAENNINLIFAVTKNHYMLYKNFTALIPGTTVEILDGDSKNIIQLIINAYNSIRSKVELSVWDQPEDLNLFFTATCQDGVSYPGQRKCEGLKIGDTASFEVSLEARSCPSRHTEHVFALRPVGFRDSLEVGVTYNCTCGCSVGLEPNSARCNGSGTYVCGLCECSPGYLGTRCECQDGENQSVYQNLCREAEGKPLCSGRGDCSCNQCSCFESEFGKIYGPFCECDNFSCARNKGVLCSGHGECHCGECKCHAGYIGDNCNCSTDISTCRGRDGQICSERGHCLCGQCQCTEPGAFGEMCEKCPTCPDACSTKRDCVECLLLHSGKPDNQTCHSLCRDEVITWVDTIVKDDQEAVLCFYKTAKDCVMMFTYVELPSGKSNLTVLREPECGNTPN
# Text: (§1) Four different soluble integrins were supplied by Celltech plc. Soluble forms of αvβ3, αvβ5, α5β1, and αIIbβ3 integrin were generated by constructing chimeras comprising the extracellular domain of αvβ3, αvβ5, α5β1, and αIIbβ3 linked to the Fc domain of either mouse IgG (αvβ3-mFc, αvβ5-mFc, and αIIbβ3-mFc) or human IgG (α5β1-hFc) as described by Stephens et al., Cell Adhes. Commun., 7:377-390 (2000) and Coe et al., J. Biol. Chem., 276:35854-35866 (2001). Since the four soluble integrin chimeras were supplied either as purified proteins (αvβ3-mFc and α5β1-hFc) or as unpurified hybridoma supernatants (αIIbβ3-mFc and αvβ5-mFc), it was necessary to use two types of ELISAs. […] In one type of ELISA (FIGS. 2A and 2B), the immobilized component is a 50 kDa fragment of fibronectin. In the second type of ELISA (FIGS. 2C and 2D), the immobilized component is a goat anti-mFc antibody that is used to capture chimeric proteins so that the RGD binding site of the integrin is maximally exposed. Each three-sided box in FIG. 2 represents a single well of a 96-well plate, and the components are listed in the sequence of their addition to the assay. The immobilized component at the bottom of the well is bound to the well by electrostatic interactions.
# To analyze the affinity and selectively of RGD peptides for αIIbβ3 and αvβ5, 96-well ELISA plates were coated with anti-murine Fc antibody at 5 μg/ml in PBS, 100 μl per well and left overnight at 4° C. The plates were washed with PBS using a Denley Wellwash 4 Mk 2. Washing was repeated twice with a 400 μl wash per well. 200 μl/well of blocking buffer was then added for 1 hour followed by a repeat washing with PBS. 100 μl of tissue culture supernatant from cells secreting soluble αIIbβ3-mFc or αvβ5-mFc, diluted 1:2 in conjugate buffer, was added to each well. Plates were incubated with shaking for 1 hour followed by two washes with PBS. 100 μl of an RGD peptide (at concentrations of 200, 20, and 2 μM), followed by either 100 μl of biotinylated fibrinogen (at 1 μg/ml in conjugate buffer) or 100 μl of biotinylated vitronectin (at 2 μg/ml in conjugate buffer) were added to each well and incubated for 2 hours with shaking. After incubation, the plates were washed with PBS as described above. 100 μl of neutravidin-peroxidase was added to each well and the plates were incubated for 30 minutes with shaking, followed by two washes with PBS. 100 μl of TMB substrate was added to each well and the plates were shaken during color development. Plates were read using a plate spectrophotometer at 630 nm.
# Two negative and two positive controls were used in both types of ELISAs. For example, the negative controls were wells that contained 50 μl of an active control peptide, integrin, and biotinylated ligand or 50 μl of the active control peptide and 50 μl of buffer. These negative control wells typically develop little to no color. […] These wells typically develop the maximum amount of color.
# (§2) FIGS. 3-6 illustrate the percent binding of the vitronectin, fibronectin, or fibrinogen ligand to αvβ5, α5β1, αIIbβ3, or αvβ3 integrin in the presence of RGD peptides (i.e., linear (A), cyclic (B), or 4-[^19F]-fluorobenzoyl cyclic (C)) at different concentrations, with 100% maximum signal being the signal obtained in the absence of the peptide.
# αvβ3 integrin = target: T2, αvβ3 integrin (Homo sapiens, UniProt P05106+P06756); experiment: ELISA: soluble αvβ3-mFc binding to immobilized 50 kDa fibronectin fragment in the presence of RGD peptides; conditions: 2 μM peptide
# T2 construct: chimeras comprising the extracellular domain of αvβ3, αvβ5, α5β1, and αIIbβ3 linked to the Fc domain of either mouse IgG; purchased Celltech plc (supplied, no catalogue number)
# T2 sequence (P06756 31-992 limits assumed): as the sequence (P06756 31-992 limits assumed) above
# T2 sequence (P05106 27-718 limits assumed): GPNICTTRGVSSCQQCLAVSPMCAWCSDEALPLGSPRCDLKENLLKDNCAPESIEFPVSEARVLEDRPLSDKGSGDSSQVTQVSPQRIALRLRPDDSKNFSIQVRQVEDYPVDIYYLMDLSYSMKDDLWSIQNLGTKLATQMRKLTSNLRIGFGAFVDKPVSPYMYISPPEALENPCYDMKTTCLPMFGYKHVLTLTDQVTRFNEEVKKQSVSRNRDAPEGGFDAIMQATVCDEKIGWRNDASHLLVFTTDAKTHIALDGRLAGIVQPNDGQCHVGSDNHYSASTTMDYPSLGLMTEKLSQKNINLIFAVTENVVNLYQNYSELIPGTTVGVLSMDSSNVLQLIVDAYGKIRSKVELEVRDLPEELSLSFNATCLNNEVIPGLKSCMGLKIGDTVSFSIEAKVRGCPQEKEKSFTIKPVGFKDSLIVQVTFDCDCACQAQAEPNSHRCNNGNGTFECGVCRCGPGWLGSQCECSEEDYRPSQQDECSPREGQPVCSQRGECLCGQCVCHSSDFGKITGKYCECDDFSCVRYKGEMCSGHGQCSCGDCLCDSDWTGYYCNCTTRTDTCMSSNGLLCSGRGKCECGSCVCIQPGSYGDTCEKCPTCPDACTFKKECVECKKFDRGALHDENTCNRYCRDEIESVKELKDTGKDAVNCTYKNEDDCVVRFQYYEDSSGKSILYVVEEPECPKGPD
# Text: as §1
# The plates were washed with PBS using a Denley Wellwash 4 Mk 2. Washing was repeated twice with a 400 μl wash per well. […] Plates were read using a plate spectrophotometer at 630 nm.
# Two negative and two positive controls were used in both types of ELISAs.
# as §2
# VUP melanoma cell line = experiment: Adhesion assay: [51Cr]-VUP cells to laminin; assay type: cell-based; conditions: highest concentration (200 μM)
# Description: (§3) RGD peptides were plated at a maximum concentration of 200 μM and a minimum concentration of 2 nM. For each RGD peptide sequence, linear peptides (A), cyclic peptides (B), and 4-[^19F]-fluorobenzoyl cyclic peptides (C) were assayed. Each RGD peptide concentration was performed in quadruplicate and each experiment was repeated twice.
# (§4) Plastic 96-well plates (Falcon 3912; Becton Dickinson) were coated with 50 μl substrate (10 μg/ml laminin or 5 μg/ml vitronectin). The plates were incubated at 37° C. in an 8% CO2 atmosphere for 1 hour. Unbound protein was flicked off and the plates were washed with phosphate buffered saline (PBS) and blocked with bovine serum albumin (0.1% w/v BSA)/PBS/0.1% sodium azide) for 1 hour. The plates were then washed with PBS, placed on a bed of ice and 25 μl of peptide was added to the wells.
# (§5) Sodium [^51Cr] chromate was purchased from Amersham International, UK. The solution was made isotonic by the addition of 110 μl 10× Hanks buffered salt solution. 100 μl of this solution (3.7 MBq) was added to 5-10×10^6 cells in 500 μl of serum-containing growth medium. The suspension was incubated at 37° C. for 45 minutes with regular agitation to resuspend the cells. The cells were then washed and spun 3 times with serum-free E4 medium to remove any free [^51Cr]chromium. A trypan blue viability count was performed and the cells were diluted to the necessary volume in serum-free E4 medium (4×10^5 cells/ml).
# 25 μl (about 10,000 cells) were added to each quadruplicate well and the plates incubated at 37° C. in an 8% CO2 atmosphere for 1 hour. Unbound cells were flicked off and the plates were washed twice with PBS/BSA containing 1 mM CaCl2 and 0.5 mM MgCl2. The plates were dabbed dry and cut into individual wells. The radioactivity associated with each well was determined in a gamma counter (1261 Multigamma; Wallac, Sweden). Quadruplicate 25 μl samples of labeled cells were counted as 100% input values. To determine non-specific binding, the ability of cells to bind BSA-coated wells was also assessed. […]
# The results were calculated as follows: [formula] […]
# A375M melanoma cell line = experiment: Adhesion assay: [51Cr]-A375M cells to laminin; assay type: cell-based, human; conditions: 200 μM peptide
# Description: as §3, §4, §5
# 25 μl (about 10,000 cells) were added to each quadruplicate well and the plates incubated at 37° C. in an 8% CO2 atmosphere for 1 hour. Unbound cells were flicked off and the plates were washed twice with PBS/BSA containing 1 mM CaCl2 and 0.5 mM MgCl2. The plates were dabbed dry and cut into individual wells. The radioactivity associated with each well was determined in a gamma counter (1261 Multigamma; Wallac, Sweden). Quadruplicate 25 μl samples of labeled cells were counted as 100% input values. To determine non-specific binding, the ability of cells to bind BSA-coated wells was also assessed. Data for these wells are referred to as background.
# The results were calculated as follows: [formula] [formula] NMR Spectroscopy of RGD Peptides
# The A375M and VUP melanoma cell lines were used with vitronectin and laminin as substrates. Peptides were titrated in 10-fold dilutions from 200 μM to 2 nM. All data were normalized to the absence of peptide, which corresponded to 100% adhesion. All titrations were performed in quadruplicate and each experiment was repeated at least twice.
substance,measurement,setting,value
RGDY(OMe)K [B7],"vitronectin binding to αvβ5, % of the maximum signal",αvβ5 integrin,32.8%
same,"fibronectin binding to αvβ3, % of the maximum signal",αvβ3 integrin,6.6%
same,"adhesion of [51Cr]-VUP cells to laminin, normalized to absence of peptide (100%)",VUP melanoma cell line,46.89%±1.45%
same,"adhesion of [51Cr]-A375M cells to laminin, normalized to absence of peptide (100%)",A375M melanoma cell line,50.40%±1.24%
